Laboratory results from EP4714938A1, “HDAC1/2 SELECTIVE INHIBITOR AND USE THEREOF” (Wigen Biomedicine Technology (Shanghai) Co., Ltd., priority 2023, dated 2024).
Where two headings read alike, the source gives them in different places.

Tests used:
Experiment in all cases: HDAC enzyme inhibitory activity, FRET method
Assay type in all cases: biochemical
HDAC2 = HDAC2 (Homo sapiens, UniProt Q92769); conditions: read-out: IC50 HDAC2
Protocol: (§1) The compounds of the present disclosure were assayed for enzyme inhibitory activity against various subtypes of HDAC enzymes by the FRET method. The various subtypes of HDAC enzymes were obtained either through purification or direct purchase of assay kits.
(§2) The specific method was as follows: The enzyme was added to a 384-well plate, and a reaction buffer was added to the control well. Serially diluted DMSO sample solutions were added to the reaction wells, and the plate was incubated at room temperature for 15 min. Then a chromogenic agent was added to stop the reaction, and fluorescence was generated. The fluorescence intensity was measured using an EnVision multi-label microplate reader (excitation: 355 nm, emission: 460 nm). The endpoint value was read after the color development reached stability. The inhibition IC50 of the compounds was calculated using GraphPad Prism4 software relative to DMSO.

HDAC1 = HDAC1 (Homo sapiens, UniProt Q13547); conditions: read-out: IC50 HDAC1
Protocol: as §1, §2

HDAC3 = HDAC3 (Homo sapiens, UniProt O15379); conditions: read-out: IC50 HDAC3
HDAC3, sequence (O15379 whole entry, species assumed): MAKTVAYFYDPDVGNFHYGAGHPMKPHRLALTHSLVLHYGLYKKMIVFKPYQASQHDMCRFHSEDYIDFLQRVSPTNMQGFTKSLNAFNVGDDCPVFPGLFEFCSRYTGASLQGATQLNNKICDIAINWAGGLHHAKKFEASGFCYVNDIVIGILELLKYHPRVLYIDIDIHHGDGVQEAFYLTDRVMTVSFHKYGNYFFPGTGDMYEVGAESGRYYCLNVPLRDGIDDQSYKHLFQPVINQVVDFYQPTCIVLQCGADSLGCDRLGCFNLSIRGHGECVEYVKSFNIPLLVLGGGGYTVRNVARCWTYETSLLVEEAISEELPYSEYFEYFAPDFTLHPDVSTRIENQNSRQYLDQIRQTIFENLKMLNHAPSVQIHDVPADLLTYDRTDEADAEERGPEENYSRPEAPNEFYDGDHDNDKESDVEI
HDAC3, sequence (Q9Y618 395-489 partner limits assumed, species assumed): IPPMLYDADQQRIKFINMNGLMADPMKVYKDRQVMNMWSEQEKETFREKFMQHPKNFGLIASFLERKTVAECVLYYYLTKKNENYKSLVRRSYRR
Protocol: as §1, §2

HDAC2, sequence (Q92769 whole entry, species assumed): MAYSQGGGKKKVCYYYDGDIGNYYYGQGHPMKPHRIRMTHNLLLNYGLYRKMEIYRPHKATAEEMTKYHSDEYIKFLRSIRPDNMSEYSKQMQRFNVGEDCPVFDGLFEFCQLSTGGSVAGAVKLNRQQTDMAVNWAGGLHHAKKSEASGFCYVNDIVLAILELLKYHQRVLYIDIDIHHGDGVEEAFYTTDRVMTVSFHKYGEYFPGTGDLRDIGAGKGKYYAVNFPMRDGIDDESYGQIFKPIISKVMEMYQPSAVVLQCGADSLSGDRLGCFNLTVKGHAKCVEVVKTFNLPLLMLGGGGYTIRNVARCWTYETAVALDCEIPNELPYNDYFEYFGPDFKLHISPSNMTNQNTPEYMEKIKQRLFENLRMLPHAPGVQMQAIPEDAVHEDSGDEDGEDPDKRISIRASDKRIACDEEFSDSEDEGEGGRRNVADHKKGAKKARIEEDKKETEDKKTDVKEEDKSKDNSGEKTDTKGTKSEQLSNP
HDAC1, sequence (Q13547 whole entry, species assumed): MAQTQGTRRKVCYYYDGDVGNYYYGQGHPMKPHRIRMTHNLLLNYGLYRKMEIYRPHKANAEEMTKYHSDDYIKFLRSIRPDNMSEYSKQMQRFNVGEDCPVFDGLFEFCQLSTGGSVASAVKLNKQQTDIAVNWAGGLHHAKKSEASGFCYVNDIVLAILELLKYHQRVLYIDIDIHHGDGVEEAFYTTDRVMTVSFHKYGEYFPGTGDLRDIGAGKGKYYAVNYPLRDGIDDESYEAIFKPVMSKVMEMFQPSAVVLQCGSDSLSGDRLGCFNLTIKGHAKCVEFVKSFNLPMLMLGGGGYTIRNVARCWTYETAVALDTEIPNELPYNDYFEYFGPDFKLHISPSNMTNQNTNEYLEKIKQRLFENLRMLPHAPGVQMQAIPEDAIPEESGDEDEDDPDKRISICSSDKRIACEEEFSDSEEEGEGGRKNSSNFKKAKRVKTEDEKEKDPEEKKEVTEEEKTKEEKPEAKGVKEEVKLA

SMILES | IC50 (HDAC2; Table 4) | IC50 (HDAC2; Table 5) | IC50 (HDAC1; Table 4) | IC50 (HDAC1; Table 5) | IC50 (HDAC3; Table 4) | IC50 (HDAC3; Table 5)
Nc1ccc(-c2ccc(F)cc2)cc1NC(=O)c1ccc(N=S2(=O)CCC(F)(F)C2)cc1 (stereo not drawn) [Compound 65] |  | 30 to 300 nM |  | < 30 nM |  | > 3000 nM
COC(=O)c1ccc(-c2ccc(N)c(NC(=O)c3ccc(N=S(C)(C)=O)cc3)c2)cc1 [Compound 5] | 500 to 5000 nM |  | < 500 nM |  | > 5000 nM | 
Nc1ccc(-c2ccc(F)cc2)cc1NC(=O)c1ccc(N=S2(=O)CCC(F)(F)CC2)cc1 [Compound 63] |  | 30 to 300 nM |  | < 30 nM |  | > 3000 nM
CS(C)(=O)=Nc1ccc(C(=O)Nc2cc(-c3ccc(C4CC4)cc3)ccc2N)cc1 [Compound 8] | 500 to 5000 nM |  | 500 to 5000 nM |  | > 5000 nM | 
Nc1ccc(-c2ccc(F)cc2)cc1NC(=O)c1ccc(N=S2(=O)CCC2)cc1 [Compound 53] |  | 30 to 300 nM |  | < 30 nM |  | > 3000 nM
Nc1ccc(-c2ccc(F)cc2)cc1NC(=O)c1ccc(N=S2(=O)CC3(CCC3)C2)cc1 [Compound 54] |  | 30 to 300 nM |  | < 30 nM |  | > 3000 nM
Nc1ccc(-c2ccc(F)cc2)cc1NC(=O)c1ccc(N=S2(=O)CCN(CC3CC3)CC2)cc1 [Compound 71] | < 500 nM |  | < 500 nM |  | > 5000 nM | 
CNC(=O)c1ccc(-c2ccc(N)c(NC(=O)c3ccc(N=S(C)(C)=O)cc3)c2)cc1 [Compound 11] | < 500 nM |  | < 500 nM |  | > 5000 nM | 
CS(C)(=O)=NC1CCC(C(=O)Nc2cc(-c3ccc(Cl)s3)ccc2N)CC1 (stereo not drawn) [Compound 48] | < 500 nM |  | < 500 nM |  | > 5000 nM | 
CS(C)(=O)=Nc1ccc(C(=O)Nc2cc(-c3ccc(F)cn3)ccc2N)cc1 [Compound 19] | < 500 nM |  | < 500 nM |  | > 5000 nM | 
CCN1CCS(=O)(=Nc2ccc(C(=O)Nc3cc(-c4ccc(F)cc4)ccc3N)cc2)CC1 [Compound 69] |  | 30 to 300 nM |  | < 30 nM |  | > 3000 nM
CS(C)(=O)=Nc1ccc(C(=O)Nc2cc(-c3ccco3)ccc2N)cc1 [Compound 20] | < 500 nM |  | < 500 nM |  | > 5000 nM | 
CS(C)(=O)=Nc1ccc(C(=O)Nc2cc(-c3cccs3)c(F)cc2N)cc1 [Compound 44] | < 500 nM |  | < 500 nM |  | > 5000 nM | 

Results, then the compound that gave them:

IC50 (HDAC2; Table 4) | IC50 (HDAC2; Table 5) | IC50 (HDAC1; Table 4) | IC50 (HDAC1; Table 5) | IC50 (HDAC3; Table 4) | IC50 (HDAC3; Table 5) | SMILES
< 500 nM | 30 to 300 nM | < 500 nM | < 30 nM | > 5000 nM | > 3000 nM | Cc1nn(C)cc1CN1CCS(=O)(=Nc2ccc(C(=O)Nc3cc(-c4ccc(F)cc4)ccc3N)cc2)CC1 [Compound 73]
< 500 nM |  | < 500 nM |  | > 5000 nM |  | Nc1ccc(-c2ccc(F)s2)cc1NC(=O)c1ccc(N=S2(=O)CCCC2)cc1 [Compound 96]
< 500 nM | 30 to 300 nM | < 500 nM | < 30 nM | > 5000 nM | > 3000 nM | CN1CC2(CCS(=O)(=Nc3ccc(C(=O)Nc4cc(-c5ccc(F)cc5)ccc4N)cc3)CC2)C1 [Compound 72]
< 500 nM |  | < 500 nM |  | > 5000 nM |  | CS(C)(=O)=NC1CCC(C(=O)Nc2cc(-c3ccc(F)s3)ccc2N)CC1 (stereo not drawn) [Compound 47]
< 500 nM |  | < 500 nM |  | > 5000 nM |  | CS(C)(=O)=Nc1ccc(C(=O)Nc2cc(-c3ccc(F)s3)ccc2O)cc1 [Compound 42]
< 500 nM |  | < 500 nM |  | > 5000 nM |  | CN1CC2(C1)CS(=O)(=Nc1ccc(C(=O)Nc3cc(-c4cccs4)ccc3N)cc1)C2 [Compound 79]
< 500 nM |  | < 500 nM |  | > 5000 nM |  | CN1CC2(CCS(=O)(=Nc3ccc(C(=O)Nc4cc(-c5cccs5)ccc4N)cc3)CC2)C1 [Compound 91]
< 500 nM |  | < 500 nM |  | > 5000 nM |  | CS(C)(=O)=Nc1ccc(C(=O)Nc2cc(-c3ccccn3)ccc2N)cc1 [Compound 14]
< 500 nM |  | < 500 nM |  | > 5000 nM |  | COc1ccc(-c2ccc(N)c(NC(=O)c3ccc(N=S(C)(C)=O)cc3)c2)cc1 [Compound 9]
